Data on six compounds can be found in PMC7323870 (Bioorganic & medicinal chemistry letters, 2010).

The target of this assay is HIV IN (Human immunodeficiency virus type 1 group M subtype B, UniProt P04585). As to the kind of experiment: HIV IN 3′ processing. It is filed as biochemical.
For `CNC(=O)c1nc(Cc2ccc(F)cc2)[nH]c(=O)c1O` [compound 7], the IC50 is more than 333 µM. The same measure for `CNC(=O)c1nc(C)n(Cc2ccc(F)cc2)c(=O)c1O` [compound 6]: more than 333 µM. The same measure for `CN(C)CCCNC(=O)c1nc(Cc2ccc(F)cc2)[nH]c(=O)c1O` [compound 9]: more than 333 µM.

In turn, `COCCNC(=O)c1nc(Cc2ccc(F)cc2)[nH]c(=O)c1O` [compound 8] gave a 50% inhibitory concentration (IC50) of more than 333 µM. `CNC(=O)c1nc(Cc2ccc(F)cc2)n(C)c(=O)c1O` [compound 11] displayed an IC50 of more than 333 µM. The same measure for `O=C(O)c1nc(Cc2ccc(F)cc2)[nH]c(=O)c1O` [compound 10]: more than 333 µM.

The term IC50 denotes the concentration at which inhibition is half-maximal.
